The source of these data is patent US9211296B2, “Therapeutic compounds for blocking DNA synthesis of POX viruses” (priority 2007, dated 2015).

For data set [1], the system named is vaccinia virus WR. In kind it is cell-based.
Data set [2] deals with vaccinia virus WR. Description: microbe, parasite or virus in culture. In kind it is cell-based.
The subject of data set [3] is vaccinia virus WR. The data set can be described thus: microbe, parasite or virus in culture. It is filed as cell-based. This is another data set of the same source.
Data set [4] relates to BS-C-1 cells. Description: WST-1 cytotoxicity assay. The settings on record: for CC50: Table 4; for tox 20 h TC50 / tox 120 h TC50 / tox 72 h TC50: Table 6. (Tetrazolium dyes change colour on reduction, which living cells bring about.)
Data set [5] addresses vaccinia virus DNA synthesis (viral DNA polymerase and its associated factors) (Vaccinia virus, UniProt P06856). In kind it is biochemical.
Data set [6] relates to vaccinia virus. In kind it is cell-based.
Setting [7] is: Orthopoxvirus vaccinia, 20 h, read-out: Cell Protection 20 h EC50.
Where [8] appears, read: read-out: Cytotoxicity 20 h CC50, 20 h.
Where [9] appears, read: read-out: DNA Synthesis Inhibition IC50.
[10] abbreviates: Orthopoxvirus vaccinia, 20 h, read-out: Plaque Reduction 20 h EC50.
Setting [11] is: Orthopoxvirus vaccinia, BSC-1, 20 h, read-out: plaque red EC50.
Setting [12] is: read-out: Cytotoxicity 120 h CC50, 120 h.
[13] abbreviates: Orthopoxvirus vaccinia, BSC-1, 20 h, read-out: cell prot EC50.
Where [14] appears, read: read-out: Cytotoxicity 72 h CC50, 72 h.

The structures appear in SMILES notation. Like-named read-outs stand apart in the source and are kept apart here.

Regarding `C[C@@]1(CO)[C@H](O)CC[C@@]2(C)[C@H]1CC[C@H]1C[C@@H]3C[C@@]12CC[C@]3(O)CO` [Aphidicolin, reference compound], the “Effect of dsDNA” value in data set [1] is “No”. The half-maximal effective concentration (EC50) in data set [2] (setting [7]) turned out to be 18 µM.

In the case of `Nc1ccn([C@@H]2O[C@H](CO)[C@@H](O)[C@@H]2O)c(=O)n1` [Ara-C, reference compound], the “Effect of dsDNA” value in data set [1] is “Yes”. Further, the EC50 in data set [3] (read-out: Plaque Reduction 20 h EC50) was 0.5 µM; in data set [2] (read-out: Cell Protection 20 h EC50), 0.24 µM. Moreover, in data set [4] (setting [8]), the half-maximal cytotoxic concentration (CC50) worked out at 16 µM.

For the compound `COC(=O)c1cccc2c1-c1ccccc1/C2=N\O` [Compound 1], the IC50 in data set [5] (setting [9]) and in data set [5] (read-out: DNA synth IC50) was 108 µM each time. Also, in data set [1], the “Effect of dsDNA” value is recorded as “No”. In addition, the “trapped by dsDNA” value in data set [1] is listed as “no”. In addition, the EC50 in data set [3] (setting [10]) worked out at 10 µM; in data set [3] (setting [11]), 10 µM; in data set [2] (setting [7]), 9.6 µM; in data set [2] (setting [13]), 9.6 µM. In addition, the “tox 20 h TC50” value in data set [4] (20 h) came out at 127 µM. Moreover, the “tox 120 h TC50” value in data set [4] (120 h) is 20 µM. For the same compound, the CC50 in data set [4] (setting [8]) was found to be 127 µM; in data set [4] (setting [12]) it was 20 µM. Moreover, the “Selectivity Index SI” value in data set [2] is on record as 13.2. This compound also displayed a selectivity index in data set [2] of 13.2. The “selectivity index over 72 h” value in data set [2] was 3.2.

In the case of `CCOC(=O)c1c(NC(=O)/C=C/C(=O)O)sc(C)c1-c1ccccc1` [Compound 2], the IC50 in data set [5] (setting [9]) and in data set [5] (read-out: DNA synth IC50) was 374 µM in each case. The “Effect of dsDNA” value in data set [1] was “No”. Moreover, the “trapped by dsDNA” value in data set [1] is reported as “no”. The EC50 was found to be 25 µM in data set [3] (setting [10]), 25 µM in data set [3] (setting [11]), 30 µM in data set [2] (setting [7]) and 30 µM in data set [2] (setting [13]). Besides, in data set [4] (20 h), the “tox 20 h TC50” value stood at 159 µM. Further, in data set [4] (setting [8]), the CC50 was determined as 159 µM.

With `CCn1c2ccccc2c2ccc(/C=N/n3cnnc3)cc21` [Compound 3], the half-inhibitory concentration (IC50) in data set [5] (setting [9]) and in data set [5] (read-out: DNA synth IC50) was 131 µM in each case. Besides, in data set [1], the “Effect of dsDNA” value is on record as “No”. For the same compound, the “trapped by dsDNA” value in data set [1] is “no”. Moreover, the 50% effective concentration (EC50) in data set [3] (setting [10]), in data set [3] (setting [11]), in data set [2] (setting [7]) and in data set [2] (setting [13]) was 50 µM throughout. In addition, the “tox 20 h TC50” value in data set [4] (20 h) was >200 µM. The “tox 72 h TC50” value in data set [4] (72 h) was determined as 36 µM. Also, the “tox 120 h TC50” value in data set [4] (120 h) was found to be 3 µM. Moreover, the CC50 is > 200 µM in data set [4] (setting [8]), 36 µM in data set [4] (setting [14]) and 3 µM in data set [4] (setting [12]). In data set [2], the “Selectivity Index SI” value is on record as >4.0. The selectivity index in data set [2] is on record as >4.0.

For `Cc1csc2c(N3CCN(C(=O)NC(C)(C)C)CC3)ncnc12` [Compound 4], the IC50 in data set [5] (setting [9]) and in data set [5] (read-out: DNA synth IC50) was 12 µM throughout. In addition, the “Effect of dsDNA” value in data set [1] was “No”. In addition, the “trapped by dsDNA” value in data set [1] is given as “no”. The half-maximal effective concentration (EC50) in data set [3] (setting [10]) was 15 µM; in data set [3] (setting [11]), 15 µM; in data set [2] (setting [7]), 50 µM; in data set [2] (setting [13]) it was 50 µM. In addition, in data set [4] (20 h), the “tox 20 h TC50” value was 157 µM. Further, in data set [4] (120 h), the “tox 120 h TC50” value is 40 µM. The CC50 in data set [4] (setting [8]) is 157 µM; in data set [4] (setting [12]), 40 µM. For the same compound, the “Selectivity Index SI” value in data set [2] came out at 3.1. This compound returned a selectivity index in data set [2] of 3.1.

For `CCNc1nc(SCc2ccc(Cl)cc2)nc2sc3c(c12)CCN(C)C3` [Compound 5], the half-inhibitory concentration (IC50) in data set [5] (setting [9]) and in data set [5] (read-out: DNA synth IC50) was 129 µM in each case. Also, the “Effect of dsDNA” value in data set [1] is “No”. The “trapped by dsDNA” value in data set [1] is “no”. Also, the EC50 was found to be 15 µM in data set [3] (setting [10]), 15 µM in data set [3] (setting [11]), 45 µM in data set [2] (setting [7]) and 42 µM in data set [2] (setting [13]). Further, the “tox 20 h TC50” value in data set [4] (20 h) was 155 µM. For the same compound, in data set [4] (120 h), the “tox 120 h TC50” value was 5 µM. The CC50 stood at 115 µM in data set [4] (setting [8]) and 5 µM in data set [4] (setting [12]). Moreover, the “Selectivity Index SI” value in data set [2] is recorded as 2.6. Also, the selectivity index in data set [2] stood at 2.6.

In the case of `Cc1ccc2c(Sc3ccc(Cl)cc3)c(C(=O)O)[nH]c2c1` [Compound 11], the half-maximal inhibitory concentration (IC50) in data set [5] (setting [9]) and in data set [5] (read-out: DNA synth IC50) was 43 µM each time. In data set [1], the “Effect of dsDNA” value was “No”. The “trapped by dsDNA” value in data set [1] is on record as “no”. Also, the half-maximal effective concentration (EC50) in data set [3] (setting [10]) stood at 75 µM; in data set [3] (setting [11]) it was 75 µM; in data set [2] (setting [7]), 130 µM; in data set [2] (setting [13]), 130 µM. The “tox 20 h TC50” value in data set [4] (20 h) is >200 µM. In data set [4] (72 h), the “tox 72 h TC50” value was determined as 174 µM. The “tox 120 h TC50” value in data set [4] (120 h) was found to be 120 µM. The cytotoxic concentration (CC50) in data set [4] (setting [8]) is > 200 µM; in data set [4] (setting [14]), 174 µM; in data set [4] (setting [12]), 120 µM. Moreover, the “Selectivity Index SI” value in data set [2] is >1.5. Further, in data set [2], the selectivity index is reported as >1.5.

As to `N=C1/C(=C/c2coc3ccccc3c2=O)C(=O)N=C2SC=NN12` [Compound 14], the IC50 in data set [5] (setting [9]) and in data set [5] (read-out: DNA synth IC50) was 75 µM in each case. For the same compound, the “Effect of dsDNA” value in data set [1] is “No”. Further, the “trapped by dsDNA” value in data set [1] is recorded as “no”. In addition, the concentration giving a half-maximal response (EC50) came out at 150 µM in data set [3] (setting [10]), 150 µM in data set [3] (setting [11]), 188 µM in data set [2] (setting [7]) and 188 µM in data set [2] (setting [13]). Besides, the “tox 20 h TC50” value in data set [4] (20 h) was >200 µM. Further, in data set [4] (72 h), the “tox 72 h TC50” value is >200 µM. Moreover, in data set [4] (120 h), the “tox 120 h TC50” value is 50 µM. Also, the CC50 in data set [4] (setting [8]) is > 200 µM; in data set [4] (setting [14]) it was > 200 µM; in data set [4] (setting [12]), 50 µM. The “Selectivity Index SI” value in data set [2] was >1. For the same compound, in data set [2], the selectivity index is reported as >1.

Turning to `CC[n+]1c(-c2ccccc2)c2cc(N)ccc2c2ccc(N)cc21` [Ethidium, reference compound], the “Effect of dsDNA” value in data set [1] is given as “Yes”. In data set [2] (setting [7]), the EC50 was 100 µM.

On to `CCN(CC)CCCC(C)Nc1c2ccc(Cl)cc2nc2ccc(OC)cc12` (stereo not drawn) [Quinacrine, reference compound], for which the “Effect of dsDNA” value in data set [1] is “Yes”. The EC50 in data set [2] (setting [7]) stood at 17 µM.

Take `CN(C)c1ccc(-c2cccc(-c3ccc(N(C)C)cc3)[o+]2)cc1` [XXX, 2,6-bis(4-(dimethylamino)phenyl)pyrylium]: the “Blocking the replication of vaccinia virus in cells” value (“Blocking the replication” below) in data set [6] is “effective in blocking the replication of vaccinia virus in cells”.

With `CCN1C(=O)/C(=C/C=C/c2ccco2)C(=O)NC1=S` [XXXI, (E)-1-ethyl-5-((E)-3-(furan-2-yl)allylidene)-2-thioxodihydropyrimidine-4,6(1H,5H)-dione], the “Blocking the replication” value in data set [6] was “effective in blocking the replication of vaccinia virus in cells”.

With `[H]/N=C1/SC(=Cc2ccco2)C(=O)N1c1nccs1` [XXXII, (E)-5-(furan-2-ylmethylene)-2-imino-3-(thiazol-2-yl)thiazolidin-4-one], in data set [6], the “Blocking the replication” value is on record as “effective in blocking the replication of vaccinia virus in cells”.

For the compound `COc1ccc(Nc2cc(C(F)(F)F)ccc2Cl)c(C(=O)O)c1` [XXXIV, 2-(2-chloro-5-(trifluoromethyl)phenylamino)-5-methoxybenzoic acid], in data set [6], the “Blocking the replication” value is reported as “effective in blocking the replication of vaccinia virus in cells”.

For `O=C1CSC(=S)N1/N=C/c1ccc(Cl)c([N+](=O)[O-])c1` [XXXIX, (E)-3-(4-chloro-3-nitrobenzylideneamino)-2-thioxothiazolidin-4-one], the “Blocking the replication” value in data set [6] is recorded as “effective in blocking the replication of vaccinia virus in cells”.

As for `CN1CCc2c(-c3cccs3)nc(OCc3ccccc3Br)c(C#N)c2C1` [XXXV, 3-(2-bromobenzyloxy)-6-methyl-1-(thiophen-2-yl)-5,6,7,8-tetrahydro-2,6-naphthyridine-4-carbonitrile], the “Blocking the replication” value in data set [6] is “effective in blocking the replication of vaccinia virus in cells”.

Broadly, the EC50 is the midpoint of the concentration-response curve. One may read the CC50 as the concentration that lowers cell viability or growth by half. A word on the IC50: it is the point on the concentration scale where inhibition reaches its midpoint.
